Legend:
[1] = biological target: T1, PI3Kγ (purified recombinant p101/p110γ protein) (Homo sapiens, UniProt P48736); assay: PI3Kγ In Vitro Kinase Assay; assay type: biochemical; settings: final ATP 20 μM, 25 μM PIP2, G protein β1/γ2 subunits, 20 minutes at room temperature
T1 construct: HA; made in house; host or cells: Spodoptera frugiperda Sf9 cells (baculovirus co-infection)
Protocol: Spodtera frugiperda cells, grown in ESF921 media, were co-infected with baculovirus expressing a glu-tagged p101 and baculovirus expressing an HA-tagged p110γ, at a 3:1 ratio of p101 baculovirus to p110γ baculovirus. Sf9 cells were grown to 1×10^7 total cells/mL in 10 L bioreactors and harvested 48-72 hours post infection. Samples of infected cells were then tested for expression of p101/p110γ PI3 kinase by immunoprecipitation and Western Blot analysis methods (see below).
To purify PI3Kγ, 4 volumes of room temperature hypotonic lysis buffer (1 mM MgCl2, 1 mM DTT, 5 mM EGTA, 1 mM Pefabloc, 0.5 μM aprotinin, 5 μM leupeptin, 2 μM pepstatin, 5 μM E64, pH 8) per gram of cell paste, was poured onto frozen cell pellets with stirring, then lysed in a nitrogen “bomb” at 400 psi (599HC T316, Parr Instrument Co, Moline, Ill.). NaCl was added to 150 mM, and sodium cholate was added to 1% and mixed for another 45 minutes. The lysates were clarified by centrifugation for 25 minutes at 14,000 rpm. The lysates were then loaded over anti-glu-linked Protein-G Sepaharose beads (Covance Research Products, Richmond, Calif.) using 20 mL resin/50 g cell paste. The column was washed with 15 volumes of wash buffer (1 mM DTT, 0.2 mM EGTA, 1 mM Pefabloc, 0.5 μM aprotinin, 5 μM leupeptin, 2 μM pepstatin, 5 μM E64, 150 mM NaCl, 1% sodium cholate, pH 8). PI3Kγ was eluted with 6 column volumes of wash buffer that contain 100 μg/mL of a peptide that competes for binding of the glu tag. The column fractions with the eluted protein (determined by taking OD280 readings) were collected and dialyzed in 0.2 mM EGTA, 1 mM DTT, 1 mM Pefabloc, 5 μM leupeptin, 0.5% sodium cholate, 150 mM NaCl, and 50% glycerol, pH 8. The fractions were stored at −80° C. until further use.
Spodtera frugiperda cells were coinfected with baculovirus expressing a glu-tagged G protein β1 and baculovirus expressing a G protein β2, at a 1:1 ratio of glu-tagged G protein β1 baculovirus to G protein β2 baculovirus. Sf9 cells are grown in 10 L bioreactors and harvested 48-72 hours post infection. Samples of infected cells were tested for G protein β1/β2 expression by Western Blot analysis, as described below. Cell lysates were homogenized and loaded onto a column of glu-tagged beads as in Biological Example 1 and competed off the column with a glu peptide and processed as described in Biological Example 1.
The inhibitory properties of the compounds in Table 1 were assayed in an in vitro PI3K assay. In a 96-well polypropylene plate, each well was spotted with 2 μL of 50 times the desired final concentration of compound in DMSO. Purified recombinant p101/p110γ protein (0.03 μg; ˜2.7 nM) and G protein β1/γ2 subunits (0.09 μg; ˜57.7 nM) for each reaction was combined in the assay buffer (30 mM HEPES, 100 mM NaCl, 1 mM EGTA, and 1 mM DTT). ATP and [γ-^32P-ATP] (0.09 μCi) were added to this mixture so that the final ATP concentration in the reaction was 20 μM. Lipid micelles were formed by sonicating phosphatidylinositol-4,5-diphosphate (PIP2), phosphatidylethanolamine (PE), and Na-cholate in the assay buffer for 10 minutes, adding MgCl2 and incubating on ice for 20 minutes, for final concentrations of 25 μM PIP2, 300 μM PE, 0.02% Na-cholate, and 10 mM MgCl2 in the reaction. The reactions were started by adding equal volumes lipid and enzyme mixture in a total volume of 50 μL, allowed to run for 20 minutes at room temperature, and stopped with 100 μL 75 mM H3PO4. The lipid product was transferred to a glass fiber filter plate and washed with 75 mM H3PO4 several times. The presence of radioactive lipid product (PIP3) was measured by adding Wallac Optiphase mix to each well and counting in a Wallac 1450 Trilux plate reader (PerkinElmer Life Sciences Inc., Boston, Mass. 02118). The IC50 for each compound tested is reported in μM in the Table 2: […]

[2] = biological target: CDK2/cyclin A (Homo sapiens, UniProt P24941); assay: CDK2/cyclinA In Vitro Kinase Assay; assay type: biochemical; settings: 10 μM of each compound; Histone H1 substrate; 0.02 mM ATP; activity as percentage of controls with DMSO alone, mean of duplicates
Protocol: The inhibitory properties of the compounds of Examples 19, 24, and 31 were assayed in an in vitro CDK2/cyclinA assay at 10 μM of each compound in DMSO. CDK2/cyclin A (5-20 mU diluted in 50 mM Hepes pH 7.5, 1 mM DTT, 0.02% Brij35, 100 mM NaCl) was assayed against Histone H1 in a final volume of 25.5 μl containing 50 mM Hepes pH7.5, 1 mM DTT, 0.02% Brij35, 100 mM NaCl, Histone H1 (1 mg/ml), 10 mM magnesium acetate and 0.02 mM [^33P-γ-ATP](500-1000 cpm/pmole) and incubated for 30 min at room temperature. Assays were stopped by addition of 5 μl of 0.5 M (3%) orthophosphoric acid and then harvested onto P81 Unifilter plates and washed with 50 mM orthophosphoric acid. The filter plates were then counted in a scintillation counter.
The results in Table 3 are expressed as percentage of controls with DMSO alone (mean of duplicates ±the standard deviation from the mean).

T1 sequence (P48736 whole entry, species assumed): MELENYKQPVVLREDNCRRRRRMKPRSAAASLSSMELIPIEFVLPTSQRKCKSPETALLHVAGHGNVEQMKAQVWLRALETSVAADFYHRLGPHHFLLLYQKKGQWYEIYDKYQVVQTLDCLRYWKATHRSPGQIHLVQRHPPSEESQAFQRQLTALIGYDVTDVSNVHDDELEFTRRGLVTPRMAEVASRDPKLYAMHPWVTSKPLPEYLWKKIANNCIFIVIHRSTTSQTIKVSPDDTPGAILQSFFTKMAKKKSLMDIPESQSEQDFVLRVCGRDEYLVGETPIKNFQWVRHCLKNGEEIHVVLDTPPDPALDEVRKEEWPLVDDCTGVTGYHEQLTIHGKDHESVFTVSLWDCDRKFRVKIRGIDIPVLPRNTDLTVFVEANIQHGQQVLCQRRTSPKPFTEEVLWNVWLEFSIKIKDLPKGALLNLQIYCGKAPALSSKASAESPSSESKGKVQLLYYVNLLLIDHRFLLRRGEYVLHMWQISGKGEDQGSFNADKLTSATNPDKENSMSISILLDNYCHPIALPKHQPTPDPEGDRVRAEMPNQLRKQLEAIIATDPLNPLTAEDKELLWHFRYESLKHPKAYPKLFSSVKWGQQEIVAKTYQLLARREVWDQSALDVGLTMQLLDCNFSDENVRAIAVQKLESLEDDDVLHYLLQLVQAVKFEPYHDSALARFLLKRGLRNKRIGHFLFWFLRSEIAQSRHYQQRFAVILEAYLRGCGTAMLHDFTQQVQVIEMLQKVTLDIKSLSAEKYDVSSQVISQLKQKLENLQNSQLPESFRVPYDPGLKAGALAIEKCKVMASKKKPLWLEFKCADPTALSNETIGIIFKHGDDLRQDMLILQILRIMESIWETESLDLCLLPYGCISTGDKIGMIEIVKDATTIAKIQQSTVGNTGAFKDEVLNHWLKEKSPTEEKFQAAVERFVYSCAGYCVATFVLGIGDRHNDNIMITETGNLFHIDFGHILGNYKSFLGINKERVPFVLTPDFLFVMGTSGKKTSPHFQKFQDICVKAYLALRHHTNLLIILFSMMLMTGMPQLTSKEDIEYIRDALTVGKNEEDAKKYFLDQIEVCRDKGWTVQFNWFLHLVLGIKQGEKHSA
T1 sequence (Q8WYR1 whole entry partner, species assumed): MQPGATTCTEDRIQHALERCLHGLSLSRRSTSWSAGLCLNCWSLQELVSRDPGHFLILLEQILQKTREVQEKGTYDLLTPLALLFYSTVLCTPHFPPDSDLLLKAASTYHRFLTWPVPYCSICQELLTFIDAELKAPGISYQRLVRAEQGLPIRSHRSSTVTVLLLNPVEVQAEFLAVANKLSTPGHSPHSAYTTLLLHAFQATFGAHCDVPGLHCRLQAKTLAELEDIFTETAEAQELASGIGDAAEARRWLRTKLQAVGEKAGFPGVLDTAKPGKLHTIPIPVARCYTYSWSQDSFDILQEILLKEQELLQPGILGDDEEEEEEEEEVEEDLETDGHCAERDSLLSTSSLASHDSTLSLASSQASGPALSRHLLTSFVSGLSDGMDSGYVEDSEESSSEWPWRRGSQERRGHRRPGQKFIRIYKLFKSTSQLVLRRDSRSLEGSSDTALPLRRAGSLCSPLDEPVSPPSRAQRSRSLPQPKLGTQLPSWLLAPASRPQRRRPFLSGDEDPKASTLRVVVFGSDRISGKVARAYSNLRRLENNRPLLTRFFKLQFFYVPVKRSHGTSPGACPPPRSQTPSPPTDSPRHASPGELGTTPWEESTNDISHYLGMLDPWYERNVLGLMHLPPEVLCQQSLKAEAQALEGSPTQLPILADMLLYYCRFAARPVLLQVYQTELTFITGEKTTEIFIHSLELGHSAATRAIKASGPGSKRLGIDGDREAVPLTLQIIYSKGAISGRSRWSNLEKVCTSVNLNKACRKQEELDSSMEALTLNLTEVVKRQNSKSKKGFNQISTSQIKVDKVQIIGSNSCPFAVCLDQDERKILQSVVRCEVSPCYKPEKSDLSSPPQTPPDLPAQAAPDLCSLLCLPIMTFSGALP

Row | Structure (SMILES) | IC50 [1] [nM] | % of DMSO control (mean ± S.D.) [2] [%]
1 | Cc1nc(Nc2cc(C(=O)O)n(C)c2)nc2c1ccc(=O)n2C1CCOCC1 [Example 19, 1-Methyl-4-[4-methyl-7-oxo-8-(tetrahydro-pyran-4-yl)-7,8-dihydro-pyrido[2,3-d]pyrimidin-2-ylamino]-1H-pyrrole-2-carboxylic acid] | 34 | 101 ± 6
2 | COC1CCC(n2c(=O)c(F)cc3c(C)nc(Nc4cc(C(=O)O)n(C)c4)nc32)CC1 (stereo not shown) [Example 27, 4-[6-Fluoro-8-(4-methoxy-cyclohexyl)-4-methyl-7-oxo-7,8-dihydro-pyrido[2,3-d]pyrimidin-2-ylamino]-1-methyl-1H-pyrrole-2-carboxylic acid] | 19 | 
3 | COCCn1c(=O)c(-c2cccc(OCc3ccccc3)c2)cc2c(C)nc(Nc3cc(C(=O)OC)n(C)c3)nc21 [Example 34, 4-[6-(3-Benzyloxy-phenyl)-8-(2-methoxy-ethyl)-4-methyl-7-oxo-7,8-dihydro-pyrido[2,3-d]pyrimidin-2-ylamino]-1-methyl-1H-pyrrole-2-carboxylic acid methyl ester] | 305 | 
4 | Cc1nc(Nc2cc(C(=O)O)n(C)c2)nc2c1cc(-c1cccc(OCc3ccccc3)c1)c(=O)n2Cc1ccc(F)cc1 [Example 35, 4-[6-(3-Benzyloxy-phenyl)-8-(4-fluoro-benzyl)-4-methyl-7-oxo-7,8-dihydro-pyrido[2,3-d]pyrimidin-2-ylamino]-1-methyl-1H-pyrrole-2-carboxylic acid] | 340 | 
5 | COc1ccc(Cn2c(=O)c(C)cc3c(C)nc(Nc4cc(C(=O)O)n(C)c4)nc32)cc1 [Example 36, 4-[8-(4-Methoxy-benzyl)-4,6-dimethyl-7-oxo-7,8-dihydro-pyrido[2,3-d]pyrimidin-2-ylamino]-1-methyl-1H-pyrrole-2-carboxylic acid] | 47 | 
6 | Cc1nc(Nc2cc(C(=O)O)n(C)c2)nc2c1ccc(=O)n2C1CCCCC1 [Example 38, 4-[8-Cyclohexyl-4-methyl-7-oxo-7,8-dihydro-pyrido[2,3-d]pyrimidin-2-ylamino]-1-methyl-1H-pyrrole-2-carboxylic acid] | 21 | 

Compounds with a lower IC50 [1], results first:

Row | IC50 [1] [nM] | % of DMSO control (mean ± S.D.) [2] [%] | Structure (SMILES)
7 | 17 |  | COc1ccc(Cn2c(=O)c(Br)cc3c(C)nc(Nc4cc(C(=O)O)n(C)c4)nc32)cc1 [Example 33, 4-[6-Bromo-8-(4-methoxy-benzyl)-4-methyl-7-oxo-7,8-dihydro-pyrido[2,3-d]pyrimidin-2-ylamino]-1-methyl-1H-pyrrole-2-carboxylic acid]
8 | 15 |  | Cc1nc(Nc2cc(C(=O)O)n(C(C)c3ccccc3)c2)nc2c1cc(F)c(=O)n2C1CCCC1 (stereo not shown) [Example 28, 4-(8-Cyclopentyl-6-fluoro-4-methyl-7-oxo-7,8-dihydro-pyrido[2,3-d]pyrimidin-2-ylamino)-1-(1-phenyl-ethyl)-1H-pyrrole-2-carboxylic acid]
9 | 9 | 85 ± 9 | Cc1nc(Nc2cc(C(=O)O)n(C)c2)nc2c1cc(F)c(=O)n2C1CCCC1 [Example 24, 4-(8-Cyclopentyl-6-fluoro-4-methyl-7-oxo-7,8-dihydro-pyrido[2,3-d]pyrimidin-2-ylamino)-1-methyl-1H-pyrrole-2-carboxylic acid]
10 | 6 |  | COC(=O)c1cc(Nc2nc(C)c3cc(Cl)c(=O)n(C4CCCC4)c3n2)cn1C [Example 29, 4-(6-Chloro-8-cyclopentyl-4-methyl-7-oxo-7,8-dihydro-pyrido[2,3-d]pyrimidin-2-ylamino)-1-methyl-1H-pyrrole-2-carboxylic acid methyl ester]
11 | 5 | 104 ± 1 | CCn1c(=O)c(Cl)cc2c(C)nc(Nc3cc(C(=O)O)n(C)c3)nc21 [Example 31, 4-(6-Chloro-8-ethyl-4-methyl-7-oxo-7,8-dihydro-pyrido[2,3-d]pyrimidin-2-ylamino)-1-methyl-1H-pyrrole-2-carboxylic acid]
12 | 5 |  | COCCn1c(=O)c(Br)cc2c(C)nc(Nc3cc(C(=O)O)n(C)c3)nc21 [Example 32, 4-[6-Bromo-8-(2-methoxy-ethyl)-4-methyl-7-oxo-7,8-dihydro-pyrido[2,3-d]pyrimidin-2-ylamino]-1-methyl-1H-pyrrole-2-carboxylic acid]
13 | 2 |  | CCn1c(=O)c(Cl)cc2c(C)nc(Nc3cc(C(=O)OC)n(C)c3)nc21 [Example 30, 4-(6-Chloro-8-ethyl-4-methyl-7-oxo-7,8-dihydro-pyrido[2,3-d]pyrimidin-2-ylamino)-1-methyl-1H-pyrrole-2-carboxylic acid methyl ester]

— patent publication US20080255162A1, “Pyrrolyl Substituted Pyrido[2,3-D]Pyrimidin-7-Ones and Derivatives Thereof as Therapeutic Agents” (WARNER-LAMBERT COMPANY LLC, priority 2004, published 2008)
